The target in assay [1] is T1, VIM-2 (Escherichia coli, UniProt Q5U7L7).
T1 construct: made in house; host or cells: Escherichia coli
Kind of assay: biochemical. Type of assay: biochemical. The settings on record: for differences between the inhibitory activity with or without excess Zn(II): 0 μM, 1 μM and 100 μM Zn(II). As for the experimental part: (§1) Except where noted, recombinant forms of NDM-1, VIM-2, SPM-1, IMP-1, and BcII MBLs were produced in Escherichia coli and assays were carried out as described previously10. The IC50 values of all the compounds for VIM-2 were determined using […]
concentrations (0 μM, 1 μM, and 100 μM, see Fig. S8). The selectivity profiles of […]
as described above. The inhibitory activities of these compounds against CphA (B2 […]
MBL; IMP, Imipenemase; NDM, New Delhi MBL; TEM-1: Temomeira-type 1 […]
b The enzyme concentrations of the purified proteins were determined by measuring Abs@280nm using a NanoDrop (ThermoFisher) spectrometer and calculated molar extinction coefficient for each sample; concentrations of diluted solutions used in the assay were calculated from the original concentration. […]
negative controls. These were tested in same assay conditions but at 2mM instead of 100uM compound concentration. […]

In assay [2] the target is apo-VIM-2 (Escherichia coli, UniProt Q5U7L7). Type of assay: binding. The conditions noted are these: 50 μM apo enzyme, 50 μM compound, 50 mM Tris-D11 pH 7.5. The protocol: (§2) Except where noted, recombinant forms of NDM-1, VIM-2, SPM-1, IMP-1, and BcII MBLs were produced in Escherichia coli and assays were carried out as described […]
(§3) previously10. […]
(§4) Nuclear Magnetic Resonance (NMR) spectra were recorded using a Bruker AVIII 600 MHz NMR spectrometer equipped with a BB-19F/1H Prodigy N2 cryoprobe using 5 mm diameter NMR tubes (Norell). Typical experimental parameters for Carr-Purcell-Meiboom-Gill (CPMG) NMR spectroscopy were: total echo time, 40 ms; […]
(§5) The PROJECT-CPMG sequence
(§6) (90°x−[τ−180°y−τ−90°y−τ−180°y−τ]n−acq) was applied. 15 Water suppression was achieved by pre-saturation. Data were processed with Bruker 3.1 software. Prior to […]
(§7) Fourier transformation, data were multiplied with an exponential function with 0.5 Hz […]
(§8) line broadening. […]

Assay [3] addresses T2, di-Zn(II) VIM-2 (Escherichia coli, UniProt Q5U7L7).
T2 construct: made in house
Type of assay: binding. The settings on record: 50 μM enzyme, 50 μM Zn(II), 50 μM compound, 50 mM Tris-D11 pH 7.5. The protocol:
as §2, §3, §4, §5, §6, §7, §8

For assay [4], the system named is class B MBLs. Kind of assay: Selectivity profile against class B MBLs (Fig. S21). Type of assay: biochemical. The protocol: The 1H NMR and 13C NMR spectra for compounds 34a, 34b, 34, 35a, 35b, and 35 […]
as §1
the FC-5 based assay10. […]
concentrations (0 μM, 1 μM, and 100 μM, see Fig. S8). The selectivity profiles of compounds of interest against other B1 MBLs including VIM-511, VIM-110, NDM-1, SPM-1, and BcII, and TEM-112 (class A SBL) were determined using the same method as described above. The inhibitory activities of these compounds against CphA (B2 MBL)13 and L1 (B3 MBL)14 were determined using meropenem and nitrocefin, […]
at 100 μM. The details regarding enzyme concentrations, substrate concentration are in […]
Nuclear Magnetic Resonance (NMR) spectra were recorded using a Bruker AVIII 600 MHz NMR spectrometer equipped with a BB-19F/1H Prodigy N2 cryoprobe using 5 mm diameter NMR tubes (Norell). Typical experimental parameters for Carr-Purcell-Meiboom-Gill (CPMG) NMR spectroscopy were: total echo time, 40 ms; relaxation delay, 2 s; and number of transients, 128. The PROJECT-CPMG sequence (90°x−[τ−180°y−τ−90°y−τ−180°y−τ]n−acq) was applied. 15 Water suppression was achieved by pre-saturation. Data were processed with Bruker 3.1 software. Prior to […]

Assay [5] addresses VIM-1 (Pseudomonas aeruginosa, UniProt A0A0F7KYQ8). Briefly: biochemical. The settings on record: n ≥ 3.
The mark [6] stands for this setting: FC-5 based assay, n ≥ 3, read-out: IC50 (VIM-2).
The mark [7] stands for this setting: FC-5 based assay, n ≥ 3, read-out: pIC50 (VIM-2) (converted).

Entries after “also recorded” stand apart in the source; their conditions may differ. Read-outs that look alike come from different tables or passages of the source. Bounds are passed on as bounds.

With `O=C(O)/C=C/C(=O)c1ccc(O)cc1` [Compound 1], the IC50 in assay [1] (IC50 (VIM-2)) was determined as 637 µM.
Regarding `O=C(O)C1CC(c2ccccc2F)=NO1` (stereo not shown) [Compound 2], in assay [1] (setting [6]), the IC50 came out at 993 µM.
Still for that read-out and setting: in the case of `NC(=O)N/N=C/c1cccc(C(=O)O)c1O` [Compound 3] it was above 1600 µM; in that of `O=C(O)CC1CC(c2ccc(F)cc2)=NO1` (stereo not shown) [Compound 4], 557 µM; in that of `CNCc1ccc(-c2cccc(C(=O)O)c2)o1` [Compound 5], above 1600 µM.
In the case of `O=C(Cc1ccc(Cl)cc1)c1ccc(O)cc1O` [Compound 6], the “differences between the inhibitory activity with or without excess Zn(II)” value in assay [1] was “no obvious differences”. In addition, the IC50 in assay [1] (setting [6]) worked out at 111 µM. Also, the “binding to apo-VIM-2 by 1H CPMG NMR” value in assay [2] is given as “strong binding; also recorded: binds”. Besides, the “binding to di-Zn(II) VIM-2 by 1H CPMG NMR” value in assay [3] is listed as “strong binding; also recorded: strong binder”.
On the same counts, the results for `NC(=S)N/N=C1\C(=O)Nc2c(C(=O)O)cccc21` [Compound 7] are “no obvious differences”, 199 µM, “binding” and “binding; also recorded: binds”.
In the case of `Cc1c/c(=N\c2ccccc2C(=O)O)n2ncnc2[nH]1` [Compound 8], in assay [1] (setting [6]), the IC50 was above 1600 µM.
In the case of `Cc1ccc(-c2cn3nnc(C(=O)O)c3c(=O)[nH]2)cc1` [Compound 9], in assay [1] (setting [6]), the IC50 turned out to be 439 µM.
Same read-out and setting: in the case of `Cc1oc2c(c1C(=O)O)C(=O)CC(c1ccccc1)C2` (stereo not shown) [Compound 10] it was above 1600 µM.
For `O=C(O)CCC(NS(=O)(=O)c1ccccc1)C(=O)O` (stereo not shown) [Compound 11], the IC50 is 1110 µM in assay [1] (IC50 (VIM-2)) and 1100 µM in assay [1] (pIC50 (VIM-2)).
On to `O=C(O)C(=Cc1ccc(-c2ccc(Cl)cc2)o1)C(=O)O` [Compound 12], for which the “differences between the inhibitory activity with or without excess Zn(II)” value in assay [1] is “no obvious differences”. Also, the IC50 in assay [1] (setting [6]) is 87 µM. The “binding to apo-VIM-2 by 1H CPMG NMR” value in assay [2] was “weak binding; also recorded: weakly”. In addition, the “binding to di-Zn(II) VIM-2 by 1H CPMG NMR” value in assay [3] is “strong binding; also recorded: binds strongly”. The “inhibition of the tested class B MBLs (in words)” value in assay [4] is “broad-spectrum inhibition”.
Consider `CN(C)c1ccc(/C=C/C(=O)c2ccccc2C(=O)O)cc1` [Compound 13], for which the “differences between the inhibitory activity with or without excess Zn(II)” value in assay [1] is “no obvious differences”. Further, the IC50 in assay [1] (setting [6]) is 135 µM. The “binding to apo-VIM-2 by 1H CPMG NMR” value in assay [2] is “weak binding; also recorded: weakly”. Further, the “binding to di-Zn(II) VIM-2 by 1H CPMG NMR” value in assay [3] is “strong binding; also recorded: binds strongly”. Moreover, the “inhibition of the tested class B MBLs (in words)” value in assay [4] was “broad-spectrum inhibition”.
In the case of `O=C(O)C(Cc1ccc(O)cc1)NC1CCS(=O)(=O)C1` (stereo not shown) [Compound 14], the IC50 is 669 µM in assay [1] (setting [6]) and 661 µM in assay [1] (setting [7]).
Turning to `CC(=O)Nc1ccc(S(=O)(=O)N2CCCC2C(=O)O)cc1` (stereo not shown) [Compound 15], in assay [1] (setting [6]), the IC50 is above 1600 µM.
Take `O=C(O)c1cccc(/C=N/N=C/c2cccc(C(=O)O)c2O)c1O` [Compound 18]: in assay [1] (setting [6]), the IC50 came to 117 µM. Also, the “binding to apo-VIM-2 by 1H CPMG NMR” value in assay [2] was “binding; also recorded: binds”. Moreover, in assay [3], the “binding to di-Zn(II) VIM-2 by 1H CPMG NMR” value is listed as “binding; also recorded: binds”.
With `Cc1cc(N/N=C/c2ccc(O)c(C(=O)O)c2)nc(-c2ccccc2O)n1` [Compound 20], the “differences between the inhibitory activity with or without excess Zn(II)” value in assay [1] is listed as “no obvious differences”. In addition, the IC50 in assay [1] (setting [6]) was below 400 µM.
Turning to `O=C(O)c1cccc2c1C(=O)N(Cc1cccnc1)C2` [Compound 21], the figures for the IC50 in assay [5] and in assay [1] (setting [6]) were above 400 µM and 349 µM, respectively.
Turning to `O=C(O)c1cccc2c1C(=O)N(Cc1ccncc1)C2` [Compound 22], the IC50 in assay [5] and in assay [1] (setting [6]) was above 400 µM each time.
As for `O=C(O)c1cccc2c1C(=O)N(Cc1ccc(F)cc1)C2` [Compound 23], the results for the IC50 in assay [5] and in assay [1] (setting [6]) were above 400 µM and 250 µM, respectively.
On the same counts, the results for `O=C(O)c1cccc2c1C(=O)N(Cc1ccccc1F)C2` [Compound 24] are above 400 µM and 47.1 µM.
Take `COc1ccc(CN2Cc3cccc(C(=O)O)c3C2=O)cc1OC` [Compound 25]: the IC50 in assay [5] was above 400 µM; in assay [1] (setting [6]), 320 µM; in assay [1] (setting [7]), 316 µM.
Turning to `COc1cc(CN2Cc3cccc(C(=O)O)c3C2=O)cc(OC)c1OC` [Compound 26], the IC50 in assay [5] and in assay [1] (setting [6]) was above 400 µM in each case.
`CN(C)c1ccc(CN2Cc3cccc(C(=O)O)c3C2=O)cc1` [Compound 27]: the IC50 in assay [5] is above 400 µM; in assay [1] (setting [6]) it was 176 µM; in assay [1] (setting [7]), 174 µM.
On the same counts, the results for `CC(c1ccccc1)N1Cc2cccc(C(=O)O)c2C1=O` (stereo not shown) [Compound 28] are above 400 µM, 168 µM and 166 µM.
Turning to `CC(c1ccncc1)N1Cc2cccc(C(=O)O)c2C1=O` (stereo not shown) [Compound 29], the IC50 in assay [5] was above 400 µM; in assay [1] (setting [6]), 229 µM.
As to `O=C(O)c1cccc2c1C(=O)N(c1ccccc1)C2` [Compound 30], the IC50 in assay [5] was above 400 µM; in assay [1] (setting [6]), 17.8 µM.
On the same counts, the results for `COc1ccccc1N1Cc2cccc(C(=O)O)c2C1=O` [Compound 31] are above 400 µM and 133 µM.
On the same counts, the results for `COc1cccc(N2Cc3cccc(C(=O)O)c3C2=O)c1` [Compound 32] are above 400 µM and 39.3 µM.
On the same counts, the results for `O=C(O)c1cccc2c1C(=O)N(c1ccccc1Cl)C2` [Compound 33] are above 400 µM and 74 µM.
In the case of `CN(C)Cc1ccc(N2Cc3cccc(C(=O)O)c3C2=O)cc1` [Compound 34], the IC50 in assay [5] was above 400 µM; in assay [1] (setting [6]) it was 60.3 µM.
For the compound `O=C(O)c1cccc2c1C(=O)N(c1ccc(O)c(F)c1)C2` [Compound 35], the IC50 was above 400 µM in assay [5] and 7.7 µM in assay [1] (setting [6]).
On the same counts, the results for `O=C(O)c1cccc2c1C(=O)N(Cc1cccs1)C2` [Compound 36] are above 400 µM and 153 µM.
As to `O=C(O)c1cccc2c1C(=O)N(C1CCCC1)C2` [Compound 37], the IC50 in assay [5] was above 400 µM; in assay [1] (setting [6]), 68.1 µM.
On to `O=C(O)c1cccc2c1C(=O)N(CC1CCCO1)C2` (stereo not shown) [Compound 38], for which the IC50 in assay [5] and in assay [1] (setting [6]) was above 400 µM in each case.
`O=C(O)c1cccc2c1C(=O)N(CCc1ccccc1)C2` [Compound 39]: the IC50 was above 400 µM in assay [5] and 71.9 µM in assay [1] (setting [6]).
Consider `COCCCN1Cc2cccc(C(=O)O)c2C1=O` [Compound 40], for which the IC50 in assay [5] and in assay [1] (setting [6]) was above 400 µM in each case.
Consider `C=CCC1c2cccc(C(=O)O)c2C(=O)N1c1ccc(F)cc1` (stereo not shown) [Compound 41], for which the results for the IC50 in assay [5] and in assay [1] (setting [6]) were above 400 µM and 24.6 µM, respectively.
Consider `C=CCC1c2cccc(C(=O)O)c2C(=O)N1c1cccc(OC)c1` (stereo not shown) [Compound 42], for which the IC50 is above 400 µM in assay [5] and 20.3 µM in assay [1] (setting [6]).
On to `C=CCC1c2cccc(C(=O)OC)c2C(=O)N1c1ccccc1` (stereo not shown) [Compound 43], for which the IC50 in assay [5] and in assay [1] (setting [6]) was above 400 µM throughout. Also, the “inhibitory activity against VIM-2 (in words)” value in assay [1] is given as “much lower inhibitory potency”.
With `C[C@H](CS)C(=O)N1CCC[C@H]1C(=O)O` [L-Captopril, reference compound], the “binding to apo-VIM-2 by 1H CPMG NMR” value in assay [2] is recorded as “very weak binding; also recorded: very weakly”. Also, the “binding to di-Zn(II) VIM-2 by 1H CPMG NMR” value in assay [3] was “strong binding; also recorded: binds strongly”.

Source of the values: article PMC5369532, “NMR-filtered virtual screening leads to non-metal chelating metallo-β-lactamase inhibitors” (Chemical Science, 2016).
